Tests used:
Type in all cases: in vivo
[1] = tested on: barnyardgrass (Echinochloa crus-galli); assay: Test A preemergence soil spray, visual injury rating 0-100; settings: 10 days
How it was run: (§1)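 Greenhouse test: loam/sand pots received a surfactant-containing formulation, as a preemergence directed soil spray or a postemergence spray on young plants. Injury was judged visually at day 10 relative to untreated controls.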

[2] = tested on: blackgrass (Alopecurus myosuroides); assay: as above; settings: 10 days
How it was run: as §1

corn (Zea mays) [3] = assay: as above; settings: 10 days
How it was run: as §1

[4] = tested on: green foxtail (Setaria viridis); assay: as above; settings: 10 days
How it was run: as §1

kochia (Bassia scoparia) [5] = assay: as above; settings: 10 days
How it was run: as §1

[6] = tested on: oat, wild (wild oat, Avena fatua); assay: as above; settings: 10 days
How it was run: as §1

[7] = tested on: palmer (palmer amaranth, palmer pigweed, Amaranthus palmeri); assay: as above; settings: 10 days
How it was run: as §1

[8] = tested on: ragweed (common ragweed, Ambrosia artemisiifolia); assay: as above; settings: 10 days
How it was run: as §1

[9] = tested on: ryegrass, Italian (italian ryegrass, Lolium multiflorum); assay: as above; settings: 10 days
How it was run: as §1

soybean (Glycine max) [10] = assay: as above; settings: 10 days
How it was run: as §1

[11] = tested on: wheat (Triticum aestivum); assay: as above; settings: 10 days
How it was run: as §1

[12] = tested on: barnyardgrass (Echinochloa crus-galli); assay: Test A postemergence application, visual injury rating 0-100
How it was run: as §1

[13] = tested on: blackgrass (Alopecurus myosuroides); assay: as above
How it was run: as §1

corn (Zea mays) [14] = assay: as above
How it was run: as §1

[15] = tested on: galium (catchweed bedstraw, Galium aparine); assay: as above
How it was run: as §1

[16] = tested on: green foxtail (Setaria viridis); assay: as above
How it was run: as §1

[17] = tested on: horseweed (Erigeron canadensis); assay: as above
How it was run: as §1

kochia (Bassia scoparia) [18] = assay: as above
How it was run: as §1

[19] = tested on: oat, wild (wild oat, Avena fatua); assay: as above
How it was run: as §1

[20] = tested on: palmer (palmer amaranth, palmer pigweed, Amaranthus palmeri); assay: as above
How it was run: as §1

[21] = tested on: ragweed (common ragweed, Ambrosia artemisiifolia); assay: as above
How it was run: as §1

[22] = tested on: ryegrass, Italian (italian ryegrass, Lolium multiflorum); assay: as above
How it was run: as §1

soybean (Glycine max) [23] = assay: as above
How it was run: as §1

[24] = tested on: wheat (Triticum aestivum); assay: as above
How it was run: as §1

[25] = tested on: barnyardgrass (Echinochloa crusgalli); assay: Test B flooded paddy test, visual plant response rating 0-100; settings: 250 g ai/ha, Flood, applied to paddy water, evaluated after 13 days
How it was run: (§2)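 Paddy-water application: test compounds went directly into water flooded 3 cm above the soil surface, with plants at 2 leaves. After a 13-day greenhouse period, responses were judged by eye relative to controls; a dash marks an untested entry.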

[26] = tested on: ducksalad (Heteranthera limosa); assay: as above; settings: 250 g ai/ha, Flood, applied to paddy water, evaluated after 13 days
How it was run: as §2

rice (Oryza sativa) = assay: as above; settings: 250 g ai/ha, Flood, applied to paddy water, evaluated after 13 days
How it was run: as §2

[27] = tested on: sedge, umbrella (small-flower umbrella sedge, Cyperus difformis); assay: as above; settings: 250 g ai/ha, Flood, applied to paddy water, evaluated after 13 days
How it was run: as §2

[28] = 62 g ai/ha, 0 = no effect, 100 = complete control
[29] = 62 g ai/ha, postemergence, 10 days, 0 = no effect, 100 = complete control
[30] = Postemergence, 16 g ai/ha, greenhouse 10 days, 0 no effect, 100 complete control

## CC1(C(=O)NC2CC=C(C(=O)NS(=O)(=O)c3ccccc3)C2)CN(c2cc(F)cc(F)c2)C(=O)O1 (racemic) [Compound 104]
[1]; 16 g ai/ha, 0 to 100 scale
  Barnyardgrass plant response rating: 0
[1]; [28]
  Barnyardgrass plant response rating (0-100): 20
[2]; 16 g ai/ha, 0 to 100 scale
  Blackgrass plant response rating: 0
[2]; [28]
  Blackgrass plant response rating (0-100): 0
Corn (Zea mays) [3]; 16 g ai/ha, 0 to 100 scale
  Corn plant response rating: 0
Corn (Zea mays) [3]; [28]
  Corn plant response rating (0-100): 0
[4]; 16 g ai/ha, 0 to 100 scale
  Foxtail, Green plant response rating: 0
[4]; [28]
  Foxtail, Green plant response rating (0-100): 30
Kochia (Bassia scoparia) [5]; 16 g ai/ha, 0 to 100 scale
  Kochia plant response rating: 0
Kochia (Bassia scoparia) [5]; [28]
  Kochia plant response rating (0-100): 50
[6]; 16 g ai/ha, 0 to 100 scale
  Oat, Wild plant response rating: 0
[6]; [28]
  Oat, Wild plant response rating (0-100): 0
[7]; 16 g ai/ha, 0 to 100 scale
  Pigweed, Palmer plant response rating: 0
[7]; [28]
  Pigweed, Palmer plant response rating (0-100): 30
[8]; 16 g ai/ha, 0 to 100 scale
  Ragweed plant response rating: 20
[8]; [28]
  Ragweed plant response rating (0-100): 20
[9]; 16 g ai/ha, 0 to 100 scale
  Ryegrass, Italian plant response rating: 0
[9]; [28]
  Ryegrass, Italian plant response rating (0-100): 20
Soybean (Glycine max) [10]; 16 g ai/ha, 0 to 100 scale
  Soybean plant response rating: 0
Soybean (Glycine max) [10]; [28]
  Soybean plant response rating (0-100): 0
[11]; 16 g ai/ha, 0 to 100 scale
  Wheat plant response rating: 0
[11]; [28]
  Wheat plant response rating (0-100): 20
[12]; [29]
  Barnyardgrass plant response rating (0-100): 100
[12]; [30]
  Barnyardgrass plant response rating (0 to 100 scale): 50
[13]; [29]
  Blackgrass plant response rating (0-100): 70
[13]; [30]
  Blackgrass plant response rating (0 to 100 scale): 0
Corn (Zea mays) [14]; [29]
  Corn plant response rating (0-100): 90
Corn (Zea mays) [14]; [30]
  Corn plant response rating (0 to 100 scale): 0
[15]; [29]
  Galium plant response rating (0-100): 70
[15]; [30]
  Galium plant response rating (0 to 100 scale): 30
[16]; [29]
  Foxtail, Green plant response rating (0-100): 90
[16]; [30]
  Foxtail, Green plant response rating (0 to 100 scale): 40
[17]; [29]
  Horseweed plant response rating (0-100): 30
[17]; [30]
  Horseweed plant response rating (0 to 100 scale): 0
Kochia (Bassia scoparia) [18]; [29]
  Kochia plant response rating (0-100): 90
Kochia (Bassia scoparia) [18]; [30]
  Kochia plant response rating (0 to 100 scale): 30
[19]; [29]
  Oat, Wild plant response rating (0-100): 30
[19]; [30]
  Oat, Wild plant response rating (0 to 100 scale): 0
[20]; [29]
  Pigweed, Palmer plant response rating (0-100): 90
[20]; [30]
  Pigweed, Palmer plant response rating (0 to 100 scale): 80
[21]; [29]
  Ragweed plant response rating (0-100): 60
[21]; [30]
  Ragweed plant response rating (0 to 100 scale): 40
[22]; [29]
  Ryegrass, Italian plant response rating (0-100): 70
[22]; [30]
  Ryegrass, Italian plant response rating (0 to 100 scale): 50
Soybean (Glycine max) [23]; [29]
  Soybean plant response rating (0-100): 60
Soybean (Glycine max) [23]; [30]
  Soybean plant response rating (0 to 100 scale): 20
[24]; [29]
  Wheat plant response rating (0-100): 90
[24]; [30]
  Wheat plant response rating (0 to 100 scale): 30
[25]
  Plant response rating, Barnyardgrass (0 to 100 scale, 0 is no effect and 100 is complete control): 0
[26]
  Plant response rating, Ducksalad (0 to 100 scale, 0 is no effect and 100 is complete control): 0
Rice (Oryza sativa)
  Plant response rating, Rice (0 to 100 scale, 0 is no effect and 100 is complete control): 0
[27]
  Plant response rating, Sedge, Umbrella (0 to 100 scale, 0 is no effect and 100 is complete control): 0

— patent publication US20260285850A1, “SUBSTITUTED OXAZOLIDINONES AND IMIDAZOLINONES AS HERBICIDES” (FMC CORPORATION, priority 2023, published 2026)
